In patent publication US20220226382A1, “Nutritional Composition” (MORINAGA MILK INDUSTRY CO., LTD., priority 2019, published 2022):

Test system: simian rotavirus SA11 strain
Test: Plaque assay: antiviral action against simian rotavirus in MA104 cells (infection-suppressing ratio)
Assay type: cell-based
Conditions: human milk oligosaccharide alone, n=3
Protocol: The simian rotavirus SA11 strain (Nihon Bioresearch Inc.) was inoculated to the MA104 cells (Sigma-Aldrich) of African green monkey kidney maintained in a minimum essential medium (Sigma-Aldrich, henceforth referred to simply as “medium”). The simian rotavirus SA11 strain, for example, can be obtained from American Type Culture Collection (ATCC) as ATCC VR-1565. To the medium, lactoferrin (LF) and/or the human milk oligosaccharide(s) shown below were added beforehand alone or in combination at the following concentrations, respectively (n=3).
LF (produced by Morinaga Milk Industry Co., Ltd.): 0, 0.1 or 1.0 mg/mL
2′-Fucosyllactose (2′-FL, Funakoshi Co., Ltd.): 0, 0.1, 0.5, or 2.5 mg/mL
3-Fucosyllactose (3-FL, Funakoshi Co., Ltd.): 0, 0.1, or 0.5 mg/mL
3′-Sialyllactose (3′-SL, Funakoshi Co., Ltd.): 0, 0.1, or 0.5 mg/mL
6′-Sialyllactose (6′-SL, Funakoshi Co., Ltd.): 0, 0.1, or 0.5 mg/mL
Human milk oligosaccharides (mixture) (HMO mix, mixture of 2′-FL (2.5 mg/mL), 3-FL (0.5 mg/mL), 3′-SL (0.25 mg/mL) and 6′-SL (0.5 mg/mL))
The amount of 1.0 mg/mL corresponds to 0.1 mass % in mass percentage.
Degree of infection was evaluated based on the number of “plaques” formed when the cells were infected with the virus. Specifically, the antiviral effects of lactoferrin and human milk oligosaccharides were evaluated based on “plaque-suppressing ratio (%)”, i.e., the ratio of “plaque counts observed with lactoferrin and/or human milk oligosaccharide(s) supplementation” to “plaque counts observed without these supplementation”. Plaque-suppressing ratio was then regarded as “infection-suppressing ratio (%)”.

`CC(=O)N[C@H]1[C@H]([C@H](O)[C@H](O)CO)O[C@@](O[C@H]2[C@@H](O)[C@@H](CO)O[C@@H](O[C@H]3[C@H](O)[C@@H](O)C(O)O[C@@H]3CO)[C@@H]2O)(C(=O)O)C[C@@H]1O` (stereo partly drawn) [3′-SL, 3′-Sialyllactose] gave an infection-suppressing ratio (0.5 mg/mL) of 33%.
Work on 3-Fucosyllactose [3-FL] yielded an infection-suppressing ratio (0.1 mg/mL) of 6.6% and an infection-suppressing ratio (0.5 mg/mL) of 21%.
2′-Fucosyllactose [2′-FL] showed an infection-suppressing ratio (0.1 mg/mL) of 1.2%.
For `CC(=O)N[C@H]1[C@H]([C@H](O)[C@H](O)CO)O[C@@](OC[C@H]2O[C@@H](O[C@H]3[C@H](O)[C@@H](O)[C@H](O)O[C@@H]3CO)[C@H](O)[C@@H](O)[C@H]2O)(C(=O)O)C[C@@H]1O` [6′-SL, 6′-Sialyllactose], the infection-suppressing ratio (0.1 mg/mL) was 4.5% and the infection-suppressing ratio (0.5 mg/mL) was 23%.
